{"source": "ChEMBL document CHEMBL1201862", "about": "“PubChem BioAssay data set” (2004)", "key": {"[1]": {"assay": "Luminescence Cell-Based Dose Response HTS to Identify Inhibitors of 5'UTR Stem-Loop Driven Prion Protein mRNA Translation in H4 Neuroglioblastoma Cells. [Related pubchem assays: 1827 (Project Summary), 1813 (Primary HTS)]", "type": "functional"}, "[2]": {"biological_target": "Glycogen synthase kinase-3 beta (Homo sapiens, UniProt P49841)", "sequence (P49841 whole entry)": "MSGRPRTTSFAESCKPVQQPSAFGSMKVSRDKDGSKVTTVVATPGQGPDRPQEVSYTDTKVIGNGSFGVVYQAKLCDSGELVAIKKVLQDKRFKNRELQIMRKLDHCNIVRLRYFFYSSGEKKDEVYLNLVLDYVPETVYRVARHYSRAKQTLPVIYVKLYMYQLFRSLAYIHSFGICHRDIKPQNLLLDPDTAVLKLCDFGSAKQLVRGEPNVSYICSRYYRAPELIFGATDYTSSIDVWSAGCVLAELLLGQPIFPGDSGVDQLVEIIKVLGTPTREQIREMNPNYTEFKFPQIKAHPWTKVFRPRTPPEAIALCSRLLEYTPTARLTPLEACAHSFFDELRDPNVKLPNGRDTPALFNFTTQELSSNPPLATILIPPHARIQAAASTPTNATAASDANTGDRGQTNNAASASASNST", "assay": "Inhibition of Human GSK-3 beta Activity Measured in Biochemical System Using Microfluidics - 2063-05_Inhibitor_Dose_DryPowder_Activity_Set2. [Related pubchem assays (depositor defined):AID2709]"}, "[3]": {"assay": "inhibitors of firefly luciferase expression or activity, dose response, H4 neuroglioma cells, luminescence (AID 1990)", "type": "functional, cell-based"}, "[4]": {"biological_target": "T1, Aryl hydrocarbon receptor (Homo sapiens, UniProt P35869)", "T1 sequence (P35869 whole entry)": "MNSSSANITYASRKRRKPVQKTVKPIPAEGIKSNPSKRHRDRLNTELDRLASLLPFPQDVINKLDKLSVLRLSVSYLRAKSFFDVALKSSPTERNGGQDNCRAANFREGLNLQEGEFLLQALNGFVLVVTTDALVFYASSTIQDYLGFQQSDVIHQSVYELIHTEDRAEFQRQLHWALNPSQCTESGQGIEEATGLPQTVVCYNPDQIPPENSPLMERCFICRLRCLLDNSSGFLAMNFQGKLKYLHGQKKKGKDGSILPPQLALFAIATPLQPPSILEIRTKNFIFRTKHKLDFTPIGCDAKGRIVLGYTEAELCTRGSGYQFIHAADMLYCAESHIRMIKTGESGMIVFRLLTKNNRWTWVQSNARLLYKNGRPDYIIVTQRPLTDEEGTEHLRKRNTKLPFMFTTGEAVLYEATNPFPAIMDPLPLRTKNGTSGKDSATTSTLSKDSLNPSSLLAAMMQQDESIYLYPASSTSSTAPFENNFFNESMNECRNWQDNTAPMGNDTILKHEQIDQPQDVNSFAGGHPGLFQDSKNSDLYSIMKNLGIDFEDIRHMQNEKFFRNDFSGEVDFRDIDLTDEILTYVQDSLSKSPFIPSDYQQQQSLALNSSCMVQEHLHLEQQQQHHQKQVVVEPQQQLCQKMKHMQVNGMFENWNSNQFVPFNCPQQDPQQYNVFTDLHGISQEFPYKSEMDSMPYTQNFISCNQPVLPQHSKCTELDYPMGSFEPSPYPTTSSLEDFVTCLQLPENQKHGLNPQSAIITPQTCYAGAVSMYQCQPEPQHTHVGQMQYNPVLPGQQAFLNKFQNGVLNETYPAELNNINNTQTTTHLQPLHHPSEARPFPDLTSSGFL", "assay": "Luminescence-based cell-based high throughput dose response assay for activators of the Aryl Hydrocarbon Receptor (AHR). [Related pubchem assays: 2796 (Primary screen (AHR activators in singlicate)), 2845 (Confirmation screen (AHR activators in triplicate)), 434939 (Counterscreen (PXR activators in triplicate)), 2804 (Summary (AHR activators))]", "type": "ADME"}, "[5]": {"biological_target": "Cyclin-dependent kinase 5/CDK5 activator 1 (Homo sapiens, UniProt Q00535)", "sequence (Q00535 whole entry)": "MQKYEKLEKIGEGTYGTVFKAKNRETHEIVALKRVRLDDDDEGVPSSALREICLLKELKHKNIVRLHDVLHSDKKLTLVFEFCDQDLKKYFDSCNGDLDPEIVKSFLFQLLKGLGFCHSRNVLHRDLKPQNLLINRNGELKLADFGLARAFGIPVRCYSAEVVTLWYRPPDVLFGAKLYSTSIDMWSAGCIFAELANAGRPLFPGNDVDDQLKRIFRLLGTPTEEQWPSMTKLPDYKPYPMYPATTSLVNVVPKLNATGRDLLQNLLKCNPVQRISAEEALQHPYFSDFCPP", "sequence (Q15078 whole entry, further chain)": "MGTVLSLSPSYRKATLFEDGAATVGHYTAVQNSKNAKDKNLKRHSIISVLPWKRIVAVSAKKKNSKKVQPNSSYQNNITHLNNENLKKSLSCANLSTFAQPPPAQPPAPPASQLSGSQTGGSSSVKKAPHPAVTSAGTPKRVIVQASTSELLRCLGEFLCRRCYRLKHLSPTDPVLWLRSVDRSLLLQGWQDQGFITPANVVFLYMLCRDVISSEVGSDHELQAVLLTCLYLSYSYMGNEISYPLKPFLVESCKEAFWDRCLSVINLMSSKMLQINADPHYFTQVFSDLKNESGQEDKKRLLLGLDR", "assay": "CDK5-p25 kinase inhibitors, specificity check, dose response, selectivity assay for GSK-3 alpha inhibitor project, biochemical, microfluidic mobility shift, dry powder (AID 588430)"}, "[6]": {"biological_target": "Glycogen synthase kinase-3 alpha (Homo sapiens, UniProt P49840)", "sequence (P49840 whole entry)": "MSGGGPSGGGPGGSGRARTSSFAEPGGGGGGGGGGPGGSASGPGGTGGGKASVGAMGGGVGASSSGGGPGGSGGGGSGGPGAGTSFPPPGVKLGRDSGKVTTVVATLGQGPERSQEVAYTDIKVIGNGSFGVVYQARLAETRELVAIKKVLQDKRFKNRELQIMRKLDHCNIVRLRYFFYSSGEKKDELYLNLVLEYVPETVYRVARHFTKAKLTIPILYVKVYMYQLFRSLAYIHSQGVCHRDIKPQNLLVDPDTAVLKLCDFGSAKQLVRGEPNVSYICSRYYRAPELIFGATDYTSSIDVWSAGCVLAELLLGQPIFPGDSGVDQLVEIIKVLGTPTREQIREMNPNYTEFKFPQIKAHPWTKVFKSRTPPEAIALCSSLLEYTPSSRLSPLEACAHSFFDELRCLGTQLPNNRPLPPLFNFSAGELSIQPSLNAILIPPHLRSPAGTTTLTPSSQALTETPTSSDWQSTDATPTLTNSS", "assay": "Inhibition of Human GSK-3 alpha Activity Measured in Biochemical System Using Microfluidics - 2063-06_Inhibitor_Dose_DryPowder_Activity_Set2. [Related pubchem assays (depositor defined):AID2709]"}, "[7]": {"assay": "inhibitors of SNCA 5'UTR-driven reporter translation, confirmation, H4 neuroglioma cells, luminescence (AID 1988)", "type": "functional, cell-based"}, "[8]": {"assay": "M. tuberculosis growth inhibition in 7H9, dose response, 7H9 media, purified and synthesized samples, set 3 (AID 504646)", "type": "functional"}, "[9]": {"assay": "A High Throughput Confirmatory Assay used to Identify Novel Compounds that Inhibit Mycobacterium Tuberculosis in the absence of Glycerol using Purified and Synthesized Compounds (3).", "type": "functional"}, "[10]": {"biological_target": "T2, Neuropeptides B/W receptor type 1 (Homo sapiens, UniProt P48145)", "T2 sequence (P48145 whole entry)": "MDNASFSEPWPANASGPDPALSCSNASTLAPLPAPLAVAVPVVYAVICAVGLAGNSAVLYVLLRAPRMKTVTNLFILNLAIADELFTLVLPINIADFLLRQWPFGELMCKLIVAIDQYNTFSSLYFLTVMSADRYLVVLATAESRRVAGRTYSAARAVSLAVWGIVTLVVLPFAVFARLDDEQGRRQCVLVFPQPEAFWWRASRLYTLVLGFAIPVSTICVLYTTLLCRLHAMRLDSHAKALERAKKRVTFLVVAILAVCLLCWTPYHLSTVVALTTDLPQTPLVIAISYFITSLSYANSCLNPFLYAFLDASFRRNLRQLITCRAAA", "assay": "GPR7 antagonist potency, late-stage follow-up, cell-based, fluorescence, dose response, set 5 (AID 588566)", "type": "functional"}, "[11]": {"biological_target": "T3, Melanin-concentrating hormone receptor 1 (Homo sapiens, UniProt Q99705)", "T3 sequence (Q99705 whole entry)": "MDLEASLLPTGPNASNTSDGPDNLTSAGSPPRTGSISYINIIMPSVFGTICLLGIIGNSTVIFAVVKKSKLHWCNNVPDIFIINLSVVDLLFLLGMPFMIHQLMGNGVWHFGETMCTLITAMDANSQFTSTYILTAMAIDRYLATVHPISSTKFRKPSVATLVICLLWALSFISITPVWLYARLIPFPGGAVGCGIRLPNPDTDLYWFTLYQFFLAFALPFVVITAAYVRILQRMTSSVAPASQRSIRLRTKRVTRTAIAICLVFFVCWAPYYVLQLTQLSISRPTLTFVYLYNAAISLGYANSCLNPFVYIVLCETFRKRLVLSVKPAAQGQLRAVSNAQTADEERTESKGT", "assay": "Late-stage fluorescence-based counterscreen for antagonists of the G-protein coupled receptor 7 (GPR7): cell-based dose response assay to identify antagonists of the melanin-concentrating hormone receptor 1 (MCHR1) Set 5.", "type": "functional"}, "[12]": {"biological_target": "T3, Melanin-concentrating hormone receptor 1", "assay": "Late-stage fluorescence-based counterscreen for antagonists of the G-protein coupled receptor 7 (GPR7): cell-based dose response assay to identify antagonists of the melanin-concentrating hormone receptor 1 (MCHR1) Set 6.", "type": "functional"}, "[13]": {"biological_target": "T2, Neuropeptides B/W receptor type 1", "assay": "GPR7 antagonist potency, late-stage follow-up, cell-based, fluorescence, dose response, set 6 (AID 588583)", "type": "functional"}, "[14]": {"biological_target": "DNA dC->dU-editing enzyme APOBEC-3A (Homo sapiens, UniProt P31941)", "sequence (P31941 whole entry)": "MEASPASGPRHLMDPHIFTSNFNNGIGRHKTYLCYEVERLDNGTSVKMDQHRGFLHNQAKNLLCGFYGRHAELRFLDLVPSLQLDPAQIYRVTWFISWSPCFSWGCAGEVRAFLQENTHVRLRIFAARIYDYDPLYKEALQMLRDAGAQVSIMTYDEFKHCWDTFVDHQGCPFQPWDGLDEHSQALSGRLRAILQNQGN", "assay": "SAR analysis of small molecule inhibitors of APOBEC3A DNA Deaminase via a fluorescence-based single-stranded DNA deaminase assay.", "type": "functional", "conditions": "read-out: IC50_Mean"}, "[15]": {"biological_target": "DNA dC->dU-editing enzyme APOBEC-3G (Homo sapiens, UniProt Q9HC16)", "sequence (Q9HC16 whole entry)": "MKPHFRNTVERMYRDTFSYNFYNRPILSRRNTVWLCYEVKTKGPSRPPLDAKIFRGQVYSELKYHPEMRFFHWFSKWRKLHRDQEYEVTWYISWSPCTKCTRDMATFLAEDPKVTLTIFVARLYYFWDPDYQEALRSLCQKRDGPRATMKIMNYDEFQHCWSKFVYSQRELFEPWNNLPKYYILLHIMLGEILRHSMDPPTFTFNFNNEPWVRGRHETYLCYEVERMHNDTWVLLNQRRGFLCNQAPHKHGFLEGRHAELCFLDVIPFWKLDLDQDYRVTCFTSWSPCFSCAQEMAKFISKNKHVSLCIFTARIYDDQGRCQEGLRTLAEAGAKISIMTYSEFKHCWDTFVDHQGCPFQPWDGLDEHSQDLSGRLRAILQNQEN", "assay": "APOBEC3G deaminase inhibitors, SAR follow-up, biochemical, fluorescence, single-stranded DNA substrate (AID 602136)", "type": "functional", "conditions": "read-out: IC50_Mean"}, "[16]": {"biological_target": "T4, High affinity choline transporter 1 (Homo sapiens, UniProt Q9GZV3)", "T4 sequence (Q9GZV3 whole entry)": "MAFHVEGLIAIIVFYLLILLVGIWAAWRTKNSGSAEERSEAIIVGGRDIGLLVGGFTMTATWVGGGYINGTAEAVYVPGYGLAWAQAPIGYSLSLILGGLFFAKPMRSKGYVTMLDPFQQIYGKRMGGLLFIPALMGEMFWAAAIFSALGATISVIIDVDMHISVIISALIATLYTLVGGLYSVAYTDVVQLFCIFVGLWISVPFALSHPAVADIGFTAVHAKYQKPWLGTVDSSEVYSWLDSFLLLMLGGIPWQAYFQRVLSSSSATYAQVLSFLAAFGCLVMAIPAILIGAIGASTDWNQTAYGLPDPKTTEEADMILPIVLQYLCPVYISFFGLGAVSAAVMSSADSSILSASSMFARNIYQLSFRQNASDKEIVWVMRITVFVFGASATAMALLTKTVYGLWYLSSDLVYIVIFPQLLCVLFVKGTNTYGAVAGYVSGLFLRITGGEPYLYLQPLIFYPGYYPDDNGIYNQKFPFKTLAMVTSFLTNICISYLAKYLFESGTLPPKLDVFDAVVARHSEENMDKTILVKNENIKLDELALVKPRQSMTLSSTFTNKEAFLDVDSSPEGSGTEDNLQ", "assay": "CHT inhibitors, dose response, cell-based, 5-point CRC, membrane potential dye (AID 504840)", "type": "functional"}, "[17]": {"biological_target": "T4, High affinity choline transporter 1", "assay": "CHT inhibitors, dose response, cell-based, 10-point CRC, membrane potential dye (AID 588401);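 further: membrane potential dye fluorescence of choline-evoked depolarization via CHT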", "type": "functional"}}, "note": "The source made the active and inactive calls.", "data": [{"compound": "COc1ccccc1Nc1nc(NCCO)nc(N)c1[N+](=O)[O-]", "values": [{"measurement": "EC50", "setting": "[1]", "value": "0.118 µM (active)"}, {"measurement": "AC50", "setting": "[2]", "value": "0.134 µM (active)"}, {"measurement": "EC50", "setting": "[3]", "value": "10.9 µM (active)"}, {"measurement": "EC50", "setting": "[4]", "value": "1.2 µM (active)"}, {"measurement": "AC50", "setting": "[5]", "value": "6.14 µM (active)"}, {"measurement": "AC50", "setting": "[6]", "value": "0.276 µM (active)"}, {"measurement": "EC50", "setting": "[7]", "value": "11.3 µM (active)"}]}, {"compound": "O=C(c1ccc(CNc2c(N3CCCC3)c(=O)c2=O)cc1)N1CCN(C2CCCCC2)CC1", "values": [{"measurement": "IC50", "setting": "[8]", "value": "> 25 µM (active)"}, {"measurement": "IC50", "setting": "[9]", "value": "> 25 µM (active)"}]}, {"compound": "COc1ccc(Oc2c(Cl)cnn(Cc3ccc4c(c3)C(=O)c3ccccc3C4=O)c2=O)cc1", "values": [{"measurement": "IC50", "setting": "[10]", "value": "> 20 µM (inactive)"}, {"measurement": "IC50", "setting": "[11]", "value": "> 20 µM (inactive)"}]}, {"compound": "Cc1ccc(C)c(C(C#N)c2c(Cl)cnn(Cc3cccc4ccccc34)c2=O)c1", "note": "(configuration not stated)", "values": [{"measurement": "IC50", "setting": "[12]", "value": "3.14 µM (active)"}, {"measurement": "IC50", "setting": "[13]", "value": "3.14 µM (active)"}]}, {"compound": "COc1ccc2c(Cl)c(-c3nnc4n3CCC4)sc2c1", "values": [{"measurement": "IC50", "setting": "[14]", "value": "> 99 µM (inactive)"}, {"measurement": "IC50", "setting": "[15]", "value": "> 99 µM (inactive)"}]}, {"compound": "C=CCc1ccc(O)c(-c2cc(CC=C)ccc2O)c1", "note": "[MAGNOLOL]", "values": [{"measurement": "IC50", "setting": "[16]", "value": "2.89 µM (active)"}, {"measurement": "IC50", "setting": "[17]", "value": "1.7 µM (active)"}]}]}
